# Laboratory results taken from patent US10487068B2, “Pyridazine derivatives as RORc modulators” (Genentech, Inc., priority 2015, dated 2019).
# Biological target: T1, RORc ligand binding domain (Homo sapiens, UniProt P51449)
# T1 sequence (P51449 269-508 limits assumed): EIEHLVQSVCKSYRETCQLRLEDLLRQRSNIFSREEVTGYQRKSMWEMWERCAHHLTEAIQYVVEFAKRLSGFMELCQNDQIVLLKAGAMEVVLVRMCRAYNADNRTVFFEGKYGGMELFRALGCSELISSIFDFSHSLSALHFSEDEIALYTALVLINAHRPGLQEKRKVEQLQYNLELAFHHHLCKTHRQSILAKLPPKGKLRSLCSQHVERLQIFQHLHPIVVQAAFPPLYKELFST
# Assay: In Vitro RORc Ligand Binding Assay
# Details: RORc IC50, radioligand 25-[3H]hydroxycholesterol 6 nM; 0.6 ug/mL RORc receptor; 3 h at 25° C.
row,SMILES,IC50
1,"CC1(C)[C@H]2CC[C@]1(c1cncc(C(=O)NCCC#N)n1)c1nnc(-c3c(F)cccc3F)cc12 [Example 90, N-(2-cyanoethyl)-6-((5R,8S)-3-(2,6-difluorophenyl)-9,9-dimethyl-5,6,7,8-tetrahydro-5,8-methanocinnolin-8-yl)pyrazine-2-carboxamide]",23 nM
2,"Cc1coc(-c2cncc([C@@]34CC[C@@H](c5cc(-c6c(F)cccc6F)nnc53)C4(C)C)n2)n1 [Example 117, 2-(6-((5R,8S)-3-(2,6-difluorophenyl)-9,9-dimethyl-5,6,7,8-tetrahydro-5,8-methanocinnolin-8-yl)pyrazin-2-yl)-4-methyloxazole]",7.6 nM
3,CC(C)(O)Cc1ccn(-c2nccc([C@@]34CC[C@@H](c5cc(-c6c(F)cccc6F)nnc53)C4(C)C)n2)n1 [Example 324],9.5 nM
4,"CC(C)(O)c1ncc(-c2cncc([C@@]34CC[C@@H](c5cc(-c6c(F)cccc6F)nnc53)C4(C)C)n2)cn1 [Example 394, 2-(5-(6-((5R,8S)-3-(2,6-difluorophenyl)-9,9-dimethyl-5,6,7,8-tetrahydro-5,8-methanocinnolin-8-yl)pyrazin-2-yl)pyrimidin-2-yl)propan-2-ol]",9.1 nM
5,CC(C)(O)c1ncn(-c2nccc([C@@]34CC[C@@H](c5cc(-c6c(F)cccc6F)nnc53)C4(C)C)n2)n1 [Example 276],15.5 nM
6,"CC[C@H](O)c1n[nH]c(-c2cncc([C@@]34CC[C@@H](c5cc(-c6c(F)cccc6F)nnc53)C4(C)C)n2)n1 [Example 295, (S)-1-(5-(6-((5R,8S)-3-(2,6-difluorophenyl)-9,9-dimethyl-5,6,7,8-tetrahydro-5,8-methanocinnolin-8-yl)pyrazin-2-yl)-1H-1,2,4-triazol-3-yl)propan-1-ol]",15.2 nM
7,"CC1(C)[C@H]2CC[C@]1(c1cnnc(N)n1)c1nnc(-c3c(F)cccc3F)cc12 [Example 127, 5-((5R,8S)-3-(2,6-difluorophenyl)-9,9-dimethyl-5,6,7,8-tetrahydro-5,8-methanocinnolin-8-yl)-1,2,4-triazin-3-amine]",109 nM
8,"Cc1oc(-c2cncc([C@@]34CC[C@@H](c5cc(-c6c(F)cccc6F)nnc53)C4(C)C)n2)nc1C(C)(C)O [Example 397, 2-(2-(6-((5R,8S)-3-(2,6-difluorophenyl)-9,9-dimethyl-5,6,7,8-tetrahydro-5,8-methanocinnolin-8-yl)pyrazin-2-yl)-5-methyloxazol-4-yl)propan-2-ol]",10.4 nM
9,CC1(C)[C@H]2CC[C@]1(c1ccnc(N3CCCC3)n1)c1nnc(-c3c(F)cccc3F)cc12 [Example 329],2.8 nM
10,CC1(C)[C@H]2CC[C@]1(c1ccnc(-n3ccc(C(N)=O)n3)n1)c1nnc(-c3c(F)cccc3F)cc12 [Example 291],34.3 nM
11,CC1(C)[C@H]2CC[C@]1(c1ccnc(-n3cnc(=O)[nH]3)n1)c1nnc(-c3c(F)cccc3F)cc12 [Example 359],17.3 nM
12,CC1(C)[C@H]2CC[C@]1(c1ccnc(N3CCO[C@H](CO)C3)n1)c1nnc(-c3c(F)cccc3F)cc12 [Example 335],6.2 nM
13,"CC1(C)[C@H]2CC[C@]1(c1cncc(-c3ncnn3CCO)n1)c1nnc(-c3c(F)cccc3F)cc12 [Example 145, 2-(5-(6-((5R,8S)-3-(2,6-difluorophenyl)-9,9-dimethyl-5,6,7,8-tetrahydro-5,8-methanocinnolin-8-yl)pyrazin-2-yl)-1H-1,2,4-triazol-1-yl)ethanol]",43.5 nM
14,CNC(=O)c1ccnc([C@@]23CC[C@@H](c4cc(-c5c(F)cccc5F)nnc42)C3(C)C)c1 [Example 70],50 nM
15,"C[C@@H](CO)NC(=O)c1cccc([C@@]23CC[C@@H](c4cc(-c5c(F)cccc5F)nnc42)C3(C)C)n1 [Example 55, 6-((5R,8S)-3-(2,6-difluorophenyl)-9,9-dimethyl-5,6,7,8-tetrahydro-5,8-methanocinnolin-8-yl)-N-((S)-1-hydroxypropan-2-yl)picolinamide]",21.4 nM
16,CC1(C)[C@H]2CC[C@]1(c1ccnc(-c3nnc(CO)[nH]3)n1)c1nnc(-c3c(F)cccc3F)cc12 [Example 180],28 nM
17,"CC(C)(O)c1coc(-c2cccc([C@@]34CC[C@@H](c5cc(-c6c(F)cccc6F)nnc53)C4(C)C)n2)n1 [Example 240, 2-(2-(6-((5R,8S)-3-(2,6-difluorophenyl)-9,9-dimethyl-5,6,7,8-tetrahydro-5,8-methanocinnolin-8-yl)pyridin-2-yl)oxazol-4-yl)propan-2-ol]",4.5 nM
18,"CC1(C)[C@H]2CC[C@]1(c1cncc(C(=O)NC3(CO)COC3)n1)c1nnc(-c3c(F)cccc3F)cc12 [Example 147, 6-((5R,8S)-3-(2,6-difluorophenyl)-9,9-dimethyl-5,6,7,8-tetrahydro-5,8-methanocinnolin-8-yl)-N-(3-(hydroxymethyl)oxetan-3-yl)pyrazine-2-carboxamide]",50.6 nM

row,SMILES,IC50
1,"CC(C)(O)c1coc(-c2cncc([C@@]34CC[C@@H](c5cc(-c6ccccc6F)nnc53)C4(C)C)n2)n1 [Example 396, 2-(2-(6-((5R,8S)-3-(2-fluorophenyl)-9,9-dimethyl-5,6,7,8-tetrahydro-5,8-methanocinnolin-8-yl)pyrazin-2-yl)oxazol-4-yl)propan-2-ol]",4.8 nM
2,"CC1(C)[C@H]2CC[C@]1(c1cncc(-c3nc(CO)co3)n1)c1nnc(-c3c(F)cccc3F)cc12 [Example 135, (2-(6-((5R,8S)-3-(2,6-difluorophenyl)-9,9-dimethyl-5,6,7,8-tetrahydro-5,8-methanocinnolin-8-yl)pyrazin-2-yl)oxazol-4-yl)methanol]",23.3 nM
3,CC1(C)[C@H]2CC[C@]1(c1nc(C(=O)NCCO)ncc1F)c1nnc(-c3c(F)cccc3F)cc12 [Example 218],60.7 nM
4,"CC1(C)[C@H]2CC[C@]1(c1cc(C#N)nc(C#N)c1)c1nnc(-c3c(F)cccc3F)cc12 [Example 210, 4-((5R,8S)-3-(2,6-difluorophenyl)-9,9-dimethyl-5,6,7,8-tetrahydro-5,8-methanocinnolin-8-yl)pyridine-2,6-dicarbonitrile]",114 nM
5,"CC1(C)[C@H]2CC[C@]1(c1cncc(C(=O)N3CC(CO)C3)n1)c1nnc(-c3c(F)cccc3F)cc12 [Example 31, (6-((5R,8S)-3-(2,6-difluorophenyl)-9,9-dimethyl-5,6,7,8-tetrahydro-5,8-methanocinnolin-8-yl)pyrazin-2-yl)(3-(hydroxymethyl)azetidin-1-yl)methanone]",93.3 nM
6,"CC1(C)[C@H]2CC[C@]1(c1cncc(F)c1)c1nnc(-c3c(F)cccc3F)cc12 [Example 217, (5R,8S)-3-(2,6-difluorophenyl)-8-(5-fluoropyridin-3-yl)-9,9-dimethyl-5,6,7,8-tetrahydro-5,8-methanocinnoline]",7.4 nM
7,"CC1(C)[C@H]2CC[C@]1(c1cncc(NC(=O)NCCO)n1)c1nnc(-c3c(F)cccc3F)cc12 [Example 204, 1-(6-((5R,8S)-3-(2,6-difluorophenyl)-9,9-dimethyl-5,6,7,8-tetrahydro-5,8-methanocinnolin-8-yl)pyrazin-2-yl)-3-(2-hydroxyethyl)urea]",74.6 nM
8,"COC(=O)c1cnc(C)c([C@@]23CC[C@@H](c4cc(-c5c(F)cccc5F)nnc42)C3(C)C)n1 [Example 169, methyl 6-((5R,8S)-3-(2,6-difluorophenyl)-9,9-dimethyl-5,6,7,8-tetrahydro-5,8-methanocinnolin-8-yl)-5-methylpyrazine-2-carboxylate]",10 nM
9,"CC(C)(O)c1cc(-c2cncc([C@@]34CC[C@@H](c5cc(-c6c(F)cccc6F)nnc53)C4(C)C)n2)ccn1 [Example 393, 2-(4-(6-((5R,8S)-3-(2,6-difluorophenyl)-9,9-dimethyl-5,6,7,8-tetrahydro-5,8-methanocinnolin-8-yl)pyrazin-2-yl)pyridin-2-yl)propan-2-ol]",5.6 nM
10,Cc1ccn(-c2nccc([C@@]34CC[C@@H](c5cc(-c6c(F)cccc6F)nnc53)C4(C)C)n2)n1 [Example 367],3.1 nM
11,CC1(C)[C@H]2CC[C@]1(c1cncc(-c3nnc[nH]3)n1)c1nnc(-c3c(F)cccc3F)cc12 [Example 104],25.9 nM
12,"CC1(C)[C@H]2CC[C@]1(c1ncc(O)cn1)c1nnc(-c3c(F)cccc3F)cc12 [Example 6, 2-((5R,8R)-3-(2,6-difluorophenyl)-9,9-dimethyl-5,6,7,8-tetrahydro-5,8-methanocinnolin-8-yl)pyrimidin-5-ol]",115 nM
13,"CN(CCO)C(=O)c1cncc([C@@]23CC[C@@H](c4cc(-c5c(F)cccc5F)nnc42)C3(C)C)n1 [Example 91, 6-((5R,8S)-3-(2,6-difluorophenyl)-9,9-dimethyl-5,6,7,8-tetrahydro-5,8-methanocinnolin-8-yl)-N-(2-hydroxyethyl)-N-methylpyrazine-2-carboxamide]",40.8 nM
14,"CC(C)(O)c1nc(-c2cncc([C@@]34CC[C@@H](c5cc(-c6c(F)cccc6F)nnc53)C4(C)C)n2)oc1Br [Example 426, 2-(5-bromo-2-(6-((5R,8S)-3-(2,6-difluorophenyl)-9,9-dimethyl-5,6,7,8-tetrahydro-5,8-methanocinnolin-8-yl)pyrazin-2-yl)oxazol-4-yl)propan-2-ol]",12.1 nM
15,"CC1(C)[C@H]2CC[C@]1(c1cccc(NS(C)(=O)=O)n1)c1nnc(-c3c(F)cccc3F)cc12 [Example 80, N-(6-((5R,8S)-3-(2,6-difluorophenyl)-9,9-dimethyl-5,6,7,8-tetrahydro-5,8-methanocinnolin-8-yl)pyridin-2-yl)methanesulfonamide]",11.2 nM
16,CC1(C)[C@H]2CC[C@]1(c1ccnc(N3CCNC(=O)C3)n1)c1nnc(-c3c(F)cccc3F)cc12 [Example 337],6 nM
17,CC1(C)[C@H]2CC[C@]1(c1ccnc(-n3cnc(CC(N)=O)n3)n1)c1nnc(-c3c(F)cccc3F)cc12 [Example 323],11.2 nM
